In patent publication US5308869A, “Substituted amidines having high binding to the sigma receptor and the use thereof” (priority 1992, dated 1994):

Legend:
sigma receptor [1] = experiment: Sigma receptor binding assay, [^3 H]DTG, guinea pig brain membrane homogenates; details: guinea pig brain membranes; for Binding to / selectivity at [^3 H]DTG-labelled sigma sites: drug specificity profile; for IC50: read-out: IC50 vs [^3 H]DTG (MEAN), […] [^3 H]DTG, pH 7.4, 90 minutes at room temperature, mean with SEM and n in own columns
sigma binding site = details: cited from earlier work
sigma sites = details: rat brain membrane; cited from earlier work
kappa receptors = details: cited from earlier work
mu receptors = details: cited from earlier work
[2] = in vivo; cited from earlier work
[3] = test system: D1 subclass of dopamine receptors; details: cited from earlier work
cholinergic sites = details: cited from earlier work
[4] = test system: [^3 H]spiperone-labeled D2 site in striatum; details: chronic administration (20 days) to rats; cited from earlier work
[5] = test system: dopamine-stimulated CAMP production; details: in vitro; cited from earlier work
[6] = test system: D2 class of striatal dopamine receptors; details: rat striatum; cited from earlier work
adrenergic sites = details: cited from earlier work
histaminergic sites = details: cited from earlier work
sigma receptor [7] = details: cited from earlier work
muscarinic sites = details: cited from earlier work
rats = details: rat, in vivo; cited from earlier work
rhesus monkeys = details: introduction of foreign objects into cages; cited from earlier work
[8] = test system: dopamine-stimulated production of CAMP; details: homogenates of rat striatum and olfactory tubercle; cited from earlier work
dopamine synthesis = details: cited from earlier work
[9] = humans; cited from earlier work
sigma receptor [10] = details: cited from earlier work; remark: listed apart in the source
[11] = test system: apomorphine-induced mesolimbic behaviors; details: without altering intensity of stereotypic behaviors; cited from earlier work

C=CCN1CCC2(C)c3cc(O)ccc3CC1C2C (single isomer, unassigned; (+)) [(+)SKF-10,047, N-allyl-normetazocine]
Binding to / selectivity at [^3 H]DTG-labelled sigma sites (sigma receptor [1]): stereoselectivity for dextrorotatory isomers
Drug selectivity profile of sigma binding site (sigma binding site): selectively label a sigma receptor

CCCN1CCCC(c2cccc(O)c2)C1 (single isomer, unassigned; (+)) [(+)[^3 H]3-PPP, (+)[^3 H]3-(3-hydroxyphenyl)-N-(1-propyl)-piperidine]
Binding to / selectivity at [^3 H]DTG-labelled sigma sites (sigma receptor [1]): virtually identical receptor binding characteristics and drug selectivity profiles
Selectivity for sigma sites (sigma sites): selective for sigma sites

CCC12CCN(CC3CC3)C(C(=O)c3ccc(O)cc31)C2C (single isomer, unassigned; (+)) [(+)[^3 H]-ethylketazocine]
Sigma site selectivity of radioligand (sigma binding site): not selective for the sigma site

C=CCN1CCC2(C)c3cc(O)ccc3CC1C2C (single isomer, unassigned; (+)) [(+)[^3 H]SKF-10,047]
Sigma site selectivity of radioligand (sigma binding site): not selective for the sigma site

CC(C)=CCN1CCC2(C)c3cc(O)ccc3CC1C2C (single isomer, unassigned; (+)) [(+)pentazocine]
Binding to / selectivity at [^3 H]DTG-labelled sigma sites (sigma receptor [1]): stereoselectivity for dextrorotatory isomers

C=CCN1CCC2(C)c3cc(O)ccc3CC1C2C (single isomer, unassigned; (-)) [(-)-SKF-10,047, N-allyl-normetazocine]
Binding to kappa receptors (kappa receptors): labeled the mu and kappa receptors
Binding to mu receptors (mu receptors): labeled the mu and kappa receptors
Drug selectivity profile of sigma binding site (sigma binding site): not the sigma receptors

C[C@@H]1CN(CCCn2c3ccccc3c3ccccc32)C[C@H](C)N1 [9-[3-(3,5-cis-dimethylpiperazino)-propyl]carbazole]
Anxiolytic activity [2]: anxiolytic activity

OC(CCCN1CCN(c2ncc(F)cn2)CC1)c1ccc(F)cc1 (centres unmarked) [BMY 14802]
Interaction with D1 subclass of dopamine receptors [3]: does not appear to interact
Inhibition of [^3 H]SCH 23390 binding ([3]; in vitro): does not inhibit
Binding to cholinergic sites (cholinergic sites): does not bind
Maximal density of [^3 H]spiperone-labeled D2 site in striatum [4]: did not increase the maximal density
Inhibition of dopamine-stimulated CAMP production [5]: does not inhibit dopamine-stimulated CAMP production
Inhibition of [^3 H]spiperone binding to D2 receptors [6]: does not inhibit the binding
Binding to adrenergic sites (adrenergic sites): does not bind
Binding to histaminergic sites (histaminergic sites): does not bind
Sigma receptor binding affinity (sigma receptor [7]): relatively high affinity
Potency at inhibiting sigma binding, dextrorotatory vs levorotatory enantiomer (sigma receptor [7]; dextrorotatory more potent than levorotatory enantiomer): 10 times
Binding to muscarinic sites (muscarinic sites): does not bind
Catalepsy in rats (rats): did not cause catalepsy in rats

O=C1CC2(CCCC2)CC(=O)N1CCCCN1CCN(c2ncccn2)CC1 [Buspirone]
Efficacy in taming of aggressive response (rhesus monkeys): efficacy in a predictive animal model

CC(=Nc1ccc(Br)cc1C)Nc1ccc(Br)cc1C [N,N'-Bis(4-bromo-2-tolyl)acetamidine]
IC50 (sigma receptor [1]): 25.8 nM

CC(=Nc1cccc2ccccc12)Nc1cccc2ccccc12 [N,N'-bis(1-naphthyl)acetamidine]
IC50 (sigma receptor [1]): 169 nM

CC(=Nc1ccccc1C(C)C)Nc1ccccc1C(C)C [N,N'-bis(2-isopropylphenyl)acetamidine, N,N'-Bis(2-isopropylphenyl)acetamidine]
IC50 (sigma receptor [1]): 77.4 nM

CCc1cccc(N=C(C)Nc2cccc(CC)c2)c1 [N,N'-bis(3-ethylphenyl)acetamidine, N,N'-Bis(3-ethylphenyl)acetamidine]
IC50 (sigma receptor [1]): 13 nM

CC(=Nc1ccccc1C)Nc1ccccc1C [N,N'-bis(-o-tolyl)acetamidine, N,N'-Bis(o-methylphenyl)acetamidine]
IC50 (sigma receptor [1]): 15 nM

CC(=NC12CC3CC(CC(C3)C1)C2)NC12CC3CC(CC(C3)C1)C2 [N,N'-bis(adamantan-1-yl)acetamidine, N,N'-Bis(adamantan-1-yl)acetamidine]
IC50 (sigma receptor [1]): 15.7 nM

CCc1ccccc1N=C(C)Nc1ccccc1CC [N,N'-bis-(o-ethylphenyl)acetamidine, N,N'-Bis(2-ethylphenyl)acetamidine]
IC50 (sigma receptor [1]): 36.9 nM

CC(=Nc1ccccc1C(C)C)Nc1cccc2ccccc12 [N-(1-naphthyl)-N'-(2-isopropylphenyl)-acetamidine]
IC50 (sigma receptor [1]): 118 nM

CCc1cccc(N=C(C)Nc2cccc3ccccc23)c1 [N-(1-naphthyl)-N'-(3-ethylphenyl)-acetamidine]
IC50 (sigma receptor [1]): 123 nM

CCc1cccc(N=C(C)Nc2cccc3ccccc23)c1 [N-(1-naphthyl)-N'-(m-ethylphenyl)-acetamidine]
IC50 (sigma receptor [1]): 2410 nM

CC(=NC1CCCCC1)NC12CC3CC(CC(C3)C1)C2 [N-(Adamantan-1-yl)-N'-(cyclohexyl)acetamidine]
IC50 (sigma receptor [1]): 71.9 nM

CC(=Nc1ccccc1C)NC12CC3CC(CC(C3)C1)C2 [N-(Adamantan-1-yl)-N'-(o-methylphenyl)acetamidine]
IC50 (sigma receptor [1]): 7.27 nM

CC(=NC1CCCCC1)Nc1ccccc1C [N-(o-Methylphenyl)-N'-(cyclohexyl)acetamidine]
IC50 (sigma receptor [1]): 9.01 nM

CN=C(C)Nc1ccccc1C [N-(o-tolyl)-N'-methylacetamidine]
IC50 (sigma receptor [1]): 354 nM

CC(=Nc1ccccc1C)NC1CC2CCC1C2 (centres unmarked) [N-Exonorbornyl-N'-(2-methylphenyl)acetamidine]
IC50 (sigma receptor [1]): 9.32 nM

[3H]c1ccc(NC(=N)Nc2ccc([3H])cc2C)c(C)c1 [[^3 H]DTG, N,N'-di-(4-[^3 H]-2-methylphenyl)-guanidine]
Binding to / selectivity at [^3 H]DTG-labelled sigma sites (sigma receptor [1]): binds specifically and with high affinity to a single class of binding sites

CN1CCc2cccc3c2[C@H]1Cc1ccc(O)c(O)c1-3 [apomorphine]
Binding to / selectivity at [^3 H]DTG-labelled sigma sites (sigma receptor [1]): insensitivity
Drug selectivity profile of sigma binding site (sigma binding site): insensitivity

NCCc1ccc(O)c(O)c1 [dopamine]
Binding to / selectivity at [^3 H]DTG-labelled sigma sites (sigma receptor [1]): insensitivity
Drug selectivity profile of sigma binding site (sigma binding site): insensitivity

O=C(CCCN1CCC(O)(c2ccc(Cl)cc2)CC1)c1ccc(F)cc1 [haloperidol]
Binding to / selectivity at [^3 H]DTG-labelled sigma sites (sigma receptor [1]): high affinity
Drug selectivity profile of sigma binding site (sigma binding site): high affinity

C=CCN1CC[C@]23c4c5ccc(O)c4O[C@H]2C(=O)CC[C@@]3(O)[C@H]1C5 [naloxone]
Binding to / selectivity at [^3 H]DTG-labelled sigma sites (sigma receptor [1]): insensitivity
Drug selectivity profile of sigma binding site (sigma binding site): insensitivity

C[C@@H]1CN(CCCn2c3ccccc3c3ccccc32)C[C@H](C)N1.Cl.Cl [rimcazole, cis-9-[3-(3,5-dimethyl-1-piperazinyl)-propyl]carbazole dihydrochloride]
Effect on dopamine-stimulated production of CAMP [8]: does not affect dopamine-stimulated production of CAMP
Acceleration of rate of dopamine synthesis (dopamine synthesis): does not accelerate the rate of dopamine synthesis
Extrapyramidal effects [9]: without extrapyramidal effects
Inhibition of specific binding of dextrorotatory tritiated SKF-10,047 (sigma receptor [10]): competitively inhibit the specific binding
Antagonism of apomorphine-induced mesolimbic behaviors [11]: antagonize apomorphine-induced mesolimbic behaviors selectively without altering the intensity of stereotypic behaviors
